Results as given in patent publication US8858962B2, “Adjuvant or pharmaceutical preparation for transdermal or transmucosal administration” (priority 2005, dated 2014).

Experiments:
[1] = tested on: BALB/c mice; test: Skin irritation score, intradermal vs transdermal administration; type: in vivo
[2] = tested on: MHC Class II molecules; test: Intensity of expression of MHC Class II molecules by lymph cells after transdermal adjuvant (flow cytometry, FIG. 1); type: in vivo, BALB/c mice; settings: for lymph cell count: 50 uL of acetone solution (50%) on shaved abdomen, lymph node removed 5 days later
Method: On the other hand, for a group for which an antigen hapten was used in combination, 50 uL of a 1:1 mixture of an FITC solution (5 mg/mL in acetone) and a solution of the adjuvant was transdermally administered to the abdomen. 5 days later, lymph node (cervix, groin) was removed, and the intensity of expression of MHC Class II molecules by lymph cells was analyzed by flow cytometry (FIG. 1).

[3] = tested on: OVA-specific IgG antibody; test: OVA-specific IgG antibody titer by ELISA; OVA intradermal plus adjuvant transdermal; type: in vivo, BALB/c mice; settings: for Antibody titer (×10^4): OVA 10 ug/head intradermal, 25 uL adjuvant transdermal, dosing at 0, 2, 4 W, 5 W data; for antigen IgG immune response: intradermal ovalbumin plus transdermal adjuvant on intact skin
Method: OVA was dissolved in physiological saline and adjusted to give 10 ug/head, and for an OVA-only group 25 uL of the OVA aqueous solution was intradermally administered. For groups in which there was combined use with various types of adjuvant, immediately after the OVA solution was intradermally administered, 25 uL of the adjuvant solution was transdermally administered (coated) via the skin surface of the abdomen. Administration was carried out at 0, 2, and 4 W, blood was collected at 2, 4, and 5 W, and the OVA-specific IgG antibody titer after 2, 4, and 5 W was measured by ELISA.

[4] = tested on: OVA-specific IgG antibody; test: OVA-specific IgG antibody titer; antigen-coated microneedles with LA applied in advance (FIG. 3); type: in vivo, hairless rats; settings: OVA 2 mg/patch on coated microneedles, punctured 2 hours
Method: OVA was adjusted to give 2 mg/patch, a needle portion of microneedles was coated with the antigen and 5% polyvinyl alcohol liquid, and for a microneedle group the abdomen of 7 to 8 W male hairless rats was punctured for 2 hours with physiological saline dropped onto the skin side. For a microneedle+lauryl alcohol group, LA was applied in advance, physiological saline was dropped onto the skin side, and it was punctured for 2 hours with microneedle needles coated with the antigen and 5% polyvinyl alcohol liquid. Administration was carried out at 0, 2, and 4 W, blood was collected at 2, 4, and 5 W, and the OVA-specific IgG antibody titer was measured by ELISA.

[5] = tested on: OVA-specific IgG antibody; test: OVA-specific IgG antibody titer; OVA/LA emulsion with microneedle, skin abrasion or iontophoresis (FIG. 2); type: in vivo, BALB/c mice; settings: OVA 100 ug/head; OVA solution:LA:Tween 20 1:1:0.01; IP, MN, Skin Prep modes; 4 W data
Method: OVA (ovalbumin antigen) was adjusted to give 100 ug/head, for an OVA-only group an OVA aqueous solution was applied, and for a group in which lauryl alcohol (LA) was used in combination, an emulsified solution formed by mixing the OVA solution, LA and Tween 20 (emulsifier) at 1:1:0.01 was used. For the microneedle group, the pre-shaved abdomen skin was punctured with 1 cm^2 of microneedles (needle length about 200 um, 400 needles/cm^2), and immediately after this 50 uL of the above-mentioned emulsion solution was applied. For the skin abrasion treatment group, instead of the microneedles, the skin was abraded 5 times with 3M RED Dot™ 2236 and 50 uL of the emulsion solution was applied. For the iontophoresis group, after the shaven abdomen skin was coated with 50 uL of the emulsion solution, an iontophoresis preparation (nonwoven cloth preparation: Ag, Ag/AgCl 1 cm^2) formed by impregnating a nonwoven cloth with physiological saline was affixed to the coated site, and direct current (0.4 mA/patch) was applied for 1 hour. Administration was carried out at 0, 2, and 4 W, blood was collected at 2, 4, and 5 W, and the OVA-specific IgG antibody titer was measured by ELISA.

[6] = tested on: OVA-specific IgG antibody; test: OVA-specific IgG antibody titer; microneedles coated with antigen emulsion (FIG. 5); type: in vivo, BALB/c mice; settings: OVA 0.1 mg/patch; microneedles coated with emulsion 1:1:0.01 (Tween 80); punctured 2 hours
Method: Furthermore, for microneedle groups (OVA+lauryl alcohol or oleyl alcohol) microneedle needles were coated with an emulsion [antigen solution:olive oil or lauryl alcohol:surfactant (Tween 80)=1:1:0.01], and puncturing was carried out for 2 hours. Administering was carried out at 0, 2, and 4 W, blood was collected at 2, 4, and 5 W, and the OVA-specific IgG antibody titer was measured by ELISA.

[7] = tested on: OVA; test: Effect of LA adjuvant in administration via oral mucous membrane, antibody titer (FIG. 7); type: in vivo, BALB/c mice; settings: OVA 2500 ug/head; antigen solution:LA:Tween 80 8:2:0.05 and 5:5:0.05; blood after 2 weeks
[8] = tested on: OVA-specific IgG antibody; test: OVA-specific IgG antibody titer; microneedles coated with antigen emulsion (FIG. 4); type: in vivo, hairless rats; settings: OVA 2 mg/patch; microneedles coated with emulsion antigen:oil or alcohol:Tween 80 1:1:0.01; punctured 2 hours
Method: OVA was adjusted to give 2 mg/patch, and for a microneedle group (OVA+5% polyvinyl alcohol), the abdomen of 7 to 8 W male hairless rats was punctured for 2 hours with a needle portion of microneedles coated with antigen and 5% polyvinyl alcohol liquid [mixed at antigen solution:10% polyvinyl alcohol=1:1]. Furthermore, for microneedle groups (OVA+olive oil) or (OVA+lauryl alcohol), microneedle needles were coated with an emulsion [antigen solution:olive oil or lauryl alcohol:surfactant (Tween 80)=1:1:0.01], and puncturing was carried out for 2 hours. Administration was carried out at 0, 2, and 4 W, blood was collected at 2, 4, and 5 W, and the OVA-specific IgG antibody titer was measured by ELISA.

| Compound | skin irritation on transdermal administration [1] | lymph cell count [2] | Antibody titer (×10^4) [3] | further results |
| --- | --- | --- | --- | --- |
| CC(C)CCCCCCCCCCCCCCCO [Isostearyl alcohol, isostearyl alcohol] | did not cause skin irritation | remarkable increase | 1.3 ×10^4 |  |
| CCCCCCCCCCCCO [Lauryl alcohol, lauryl alcohol] | did not cause skin irritation | remarkable increase | 2.1 ×10^4 | OVA-specific IgG antibody titer [4]: increased,remarkably; adjuvant effect in transdermal administration ([2]; comparison among adjuvants): most outstanding adjuvant effect; OVA-specific IgG antibody titer [5]: significant increase; OVA-specific IgG antibody titer [6]: increased remarkably; antigen IgG immune response [3]: highest immune response; antibody titer, oral mucous membrane administration [7]: increased in response to the LA concentration; OVA-specific IgG antibody titer [8]: increased remarkably |
| CCCCCCCCCCC(CO)CCCCCCCC (centres unmarked) [Octyldodecanol, octyldodecanol] | did not cause skin irritation |  | 0.6 ×10^4 |  |
| CCCCCCCC/C=C\CCCCCCCCO [Oleyl alcohol, oleyl alcohol] | did not cause skin irritation | remarkable increase | 2.1 ×10^4 | OVA-specific IgG antibody titer [6]: increased remarkably; antigen IgG immune response [3]: highest immune response |
| CCCCCCCC/C=C\CCCCCCCC(=O)O [oleic acid] |  | remarkable increase |  |  |
| polyethylene glycol monolaurate | did not cause skin irritation |  | 0.9 ×10^4 |  |
| sorbitan monolaurate | did not cause skin irritation | remarkable increase |  |  |
| sorbitan monooleate |  | remarkable increase |  |  |
